# From ChEMBL document CHEMBL5620362 (Eur J Med Chem, 2023)
# Calls of active or inactive are those of the source. The calls are words filed in the database; no cut-off is given here.
# Legend:
# [1] = AUC (infinity) in ICR mouse at 3 mg/kg, iv; format: ADME, organism-based; details: in vivo
# NCI-H23 [2] = assay: Induction of apoptosis in human NCI-H23 cells assessed as necrotic cells at 0.1 uM incubated for 48 hrs by Annexin V-FITC/PI staining based flow cytometry (reference value: 0.78 %); format: functional
# HPAF-II [3] = assay: Antitumor activity against human HPAF-II cells xenografted in nude Balb/cA mouse assessed as tumor growth inhibition at 150 mg/kg, po qd measured for 12 days relative to control; format: functional; design: scale not given: the % may be the effect or the level left; details: time 12 day
# NCI-H23 [4] = assay: Induction of apoptosis in human NCI-H23 cells assessed as late apoptotic cells at 0.01 uM incubated for 48 hrs by Annexin V-FITC/PI staining based flow cytometry (reference value: 2.89 %); format: functional
# [5] = target: T1, Nuclear receptor ROR-gamma (Homo sapiens) (UniProt P51449); assay: Antagonist activity at Gal4-tagged ROR-gamma LBD (unknown origin) transfected in HEK293T cells assessed as reduction in luciferase activity at 0.1 to 1 uM incubated for 24 hrs by Renilla luciferase reporter gene assay; format: cell-based; details: filed as antagonist, dose 0.1-1 µM
# T1 sequence (whole entry): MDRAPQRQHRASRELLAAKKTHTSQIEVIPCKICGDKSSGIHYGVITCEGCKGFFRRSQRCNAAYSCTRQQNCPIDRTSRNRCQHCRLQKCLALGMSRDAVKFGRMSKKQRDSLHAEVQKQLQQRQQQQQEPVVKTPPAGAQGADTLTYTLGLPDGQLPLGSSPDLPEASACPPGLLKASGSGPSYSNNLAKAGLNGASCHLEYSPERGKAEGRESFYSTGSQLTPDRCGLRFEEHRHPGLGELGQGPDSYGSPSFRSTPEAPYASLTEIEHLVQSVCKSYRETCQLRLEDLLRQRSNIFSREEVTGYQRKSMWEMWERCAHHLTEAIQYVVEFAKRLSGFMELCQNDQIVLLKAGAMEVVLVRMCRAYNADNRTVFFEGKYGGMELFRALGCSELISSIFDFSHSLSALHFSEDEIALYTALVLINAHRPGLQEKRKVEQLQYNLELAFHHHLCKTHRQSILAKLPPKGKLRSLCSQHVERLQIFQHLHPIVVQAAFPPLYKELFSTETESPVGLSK
# HPAF-II [6] = assay: Induction of apoptosis in human HPAF-II cells assessed as necrotic cells at 0.1 uM incubated for 48 hrs by Annexin V-FITC/PI staining based flow cytometry (reference value: 8.09 %); format: functional
# HPAF-II [7] = assay: Antitumor activity against human HPAF-II cells xenografted in nude Balb/cA mouse assessed as tumor growth inhibition at 15 mg/kg, ip qd measured for 12 days relative to control; format: functional; design: scale not given: the % may be the effect or the level left; details: time 12 day
# HPAF-II [8] = assay: Induction of apoptosis in human HPAF-II cells assessed as viable cells at 0.1 uM incubated for 48 hrs by Annexin V-FITC/PI staining based flow cytometry (reference value: 89.73 %); format: functional; details: read-out: Activity
# HPAF-II [9] = assay: Induction of apoptosis in human HPAF-II cells assessed as early apoptotic cells at 1 uM incubated for 48 hrs by Annexin V-FITC/PI staining based flow cytometry (reference value: 0.90 %); format: functional
# [10] = Clearance in ICR mouse at 3 mg/kg, iv; format: ADME, organism-based; details: in vivo
# NCI-H23 [11] = assay: Induction of apoptosis in human NCI-H23 cells assessed as necrotic cells at 0.01 uM incubated for 48 hrs by Annexin V-FITC/PI staining based flow cytometry (reference value: 0.78 %); format: functional
# NCI-H23 [12] = assay: Induction of apoptosis in human NCI-H23 cells assessed as early apoptotic cells at 1 uM incubated for 48 hrs by Annexin V-FITC/PI staining based flow cytometry (reference value: 4.17 %); format: functional
# [13] = target: T2, Nuclear receptor ROR-gamma (Homo sapiens, UniProt P51449); assay: Binding affinity to CM5 chip-immobilized recombinant ROR-gamma LBD (unknown origin) assessed as dissociation constant by SPR analysis
# T2 sequence (P51449 whole entry): T1 sequence (whole entry)
# NCI-H23 [14] = assay: Induction of apoptosis in human NCI-H23 cells assessed as viable cells at 0.1 uM incubated for 48 hrs by Annexin V-FITC/PI staining based flow cytometry (reference value: 92.16 %); format: functional; details: read-out: Activity
# [15] = MRT (infinity) in ICR mouse at 10 mg/kg, po; format: ADME, organism-based; details: in vivo
# NCI-H23 [16] = assay: Induction of apoptosis in human NCI-H23 cells assessed as early apoptotic cells at 0.1 uM incubated for 48 hrs by Annexin V-FITC/PI staining based flow cytometry (reference value: 4.17 %); format: functional
# MIA PaCa-2 [17] = assay: Cytotoxicity against human MIA PaCa-2 cells harboring siROR-gamma assessed as decrease in cell viability at 0.1 uM incubated for 72 hrs by SRB assay; format: functional, cell-based
# NCI-H23 [18] = assay: Induction of apoptosis in human NCI-H23 cells assessed as necrotic cells at 1 uM incubated for 48 hrs by Annexin V-FITC/PI staining based flow cytometry (reference value: 0.78 %); format: functional
# HPAF-II [19] = assay: Induction of apoptosis in human HPAF-II cells assessed as increase in cleaved caspase-3 level at 0.1 to 1 uM incubated for 48 hrs by Western blot analysis; format: functional, cell-based; details: dose 0.1-1 µM
# HPAF-II [20] = assay: Induction of apoptosis in human HPAF-II cells assessed as late apoptotic cells at 1 uM incubated for 48 hrs by Annexin V-FITC/PI staining based flow cytometry (reference value: 1.28 %); format: functional
# BXPC-3 = assay: Anticancer activity against human BXPC-3 cells incubated for 72 hrs; format: functional, cell-based
# MIA PaCa-2 [21] = assay: Induction of apoptosis in human MIA PaCa-2 cells 1 uM incubated for 48 hrs by Annexin V-FITC/PI staining based flow cytometry; format: functional, cell-based
# A549 = assay: Anticancer activity against human A549 cells incubated for 72 hrs; format: functional, cell-based
# [22] = Toxicity in nude Balb/cA mouse xenografted with human HPAF-II cells assessed as swelling at injection site at 15 mg/kg, ip qd measured for 12 days; format: organism-based; details: in vivo, 288 h, time 12 day
# [23] = Half life in ICR mouse at 10 mg/kg, po; format: ADME, organism-based; details: in vivo
# MIA PaCa-2 [24] = assay: Inhibition of colony formation in human MIA PaCa-2 cells harboring siROR-gamma 0.1 uM incubated for 6 to 7 days by crystal violet staining based analysis; format: functional, cell-based; details: time 6-7 day
# HPAF-II [25] = assay: Induction of apoptosis in human HPAF-II cells assessed as late apoptotic cells at 0.01 uM incubated for 48 hrs by Annexin V-FITC/PI staining based flow cytometry (reference value: 1.28 %); format: functional
# CFPAC-1 = assay: Anticancer activity against human CFPAC-1 cells incubated for 72 hrs; format: functional, cell-based
# NCI-H23 [26] = assay: Induction of apoptosis in human NCI-H23 cells assessed as late apoptotic cells at 0.1 uM incubated for 48 hrs by Annexin V-FITC/PI staining based flow cytometry (reference value: 2.89 %); format: functional
# [27] = Cmax in ICR mouse at 10 mg/kg, po; format: ADME, organism-based; details: in vivo
# HPAF-II [28] = assay: Downregulation of phosphorylated AKT expression in human HPAF-II cells at 0.1 to 1 uM incubated for 48 hrs by Western blot analysis; format: functional, cell-based; details: dose 0.1-1 µM
# HPAF-II [29] = assay: Antitumor activity against human HPAF-II cells xenografted in nude Balb/cA mouse assessed as tumor growth inhibition at 90 mg/kg, po qd measured for 12 days relative to control; format: functional; design: scale not given: the % may be the effect or the level left; details: time 12 day
smiles,measurement,setting,value
C=C(C)[C@@H]1CC[C@]2(C(=O)NCCCN(C)C)CC[C@]3(C)[C@H](CC[C@@H]4[C@@]5(C)CC[C@H](O)C(C)(C)[C@@H]5CC[C@]43C)[C@@H]12,AUC(0-inf),[1],3050 ng·h/mL
same,Activity,NCI-H23 [2],4.71%
same,Activity,HPAF-II [3],39%
same,Activity,NCI-H23 [4],6.78%
same,Activity,[5],Active
same,Activity,HPAF-II [6],4.85%
same,Activity,HPAF-II [7],76%
same,viability at 0.1 µM,HPAF-II [8],59.3%
same,Activity,HPAF-II [9],39.49%
same,clearance,[10],16.5 mL/min/kg
same,Activity,NCI-H23 [11],2.81%
same,Activity,NCI-H23 [12],67.63%
same,Kd,[13],180 nM
same,viability at 0.1 µM,NCI-H23 [14],79.5%
same,MRT inf,[15],16.6 h
same,Activity,NCI-H23 [16],3.45%
same,Activity,MIA PaCa-2 [17],inactive
same,Activity,NCI-H23 [18],1.48%
same,Activity,HPAF-II [19],Active
same,Activity,HPAF-II [20],20.27%
same,Activity,BXPC-3,Active
same,Activity,MIA PaCa-2 [21],Active
same,Activity,A549,Active
same,Activity,[22],Toxic
same,half-life,[23],11.9 h
same,inhibition,MIA PaCa-2 [24],inactive
same,Activity,HPAF-II [25],4.48%
same,Activity,CFPAC-1,Active
same,Activity,NCI-H23 [26],12.32%
same,Cmax,[27],114 ng/mL
same,Activity,HPAF-II [28],Active
same,Activity,HPAF-II [29],21%
